# According to US12326492B2, “Systems and methods of detecting interstitial cystitis” (LIPELLA PHARMACEUTICALS, INC., priority 2014, dated 2025):
# Test: MRI bladder phantom permeability assay (dialysis membrane in gelatin, spin-echo MRI)
# Type: physicochemical
# Conditions: membrane 12-14 kD MW cutoff, 425 μM Gd-DTPA, 5 mM Ferumoxytol in lumen
# Excerpt: FIG. 2 is a schematic of synthetic model system (an MRI “bladder phantom”) where membrane porosity and soft matter diffusivity can be controlled. The MRI bladder phantom, shown in FIG. 2, was constructed from clear polycarbonate cylindrical tubes having an outer diameter of 35 mm, a wall thickness of 4 mm, and a length of 90 mm. A sealed (70 mm length, 7 mm diameter) segment of a filled wet dialysis membrane was suspended in the center of each polycarbonate tube lumen and aligned with the tube length, during which a liquid solution (3.125% w/w) of hydrolyzed collagen was added to the lumen of the tube (but not the lumen of the dialysis membrane) and allowed to gel. The dialysis membrane porosity was 12-14 kD MW cutoff. The bladder phantom was placed in a standard mouse MRI RF coil for imaging on a 3-Tesla bench top MRI system with a bore diameter of 160 mm and a 70 mm field of view (MR Solutions, Surrey, UK). […]
# This dark line is indicative of a lack of hydrogen nuclei in the liquid state where the dialysis membrane is located, a position that represents the luminal surface of the bladder. […] Since the entire lumen has an increased signal intensity, it is difficult to see without quantitative tools if the gadopentetate dimeglumine (Gd-DTPA) is diffusing into the gelatin an issue that becomes more relevant in a biological setting. […]
row,Compound,diffusion across the dialysis membrane
1,"CNC[C@H](O)[C@@H](O)[C@H](O)[C@H](O)CO.CNC[C@H](O)[C@@H](O)[C@H](O)[C@H](O)CO.O=C([O-])CN(CCN(CC(=O)[O-])CC(=O)O)CCN(CC(=O)[O-])CC(=O)O.[Gd+3] [Magnevist, Gadopentetate dimeglumine]",porosity large enough to allow gadopentetate dimeglumine (Gd-DTPA) to pass

# Test: not given
# Conditions: T1-reducing contrast agents, Table 1; cited from earlier work
row,Compound,Average Diameter [Å]
1,"O=C([O-])CN1CCN(CC(=O)[O-])CCN([C@H](CO)[C@H](O)CO)CCN(CC(=O)[O-])CC1.[Gd+3] (racemic) [Gadovist, Gadobutrol]",8
2,"CNC[C@H](O)[C@@H](O)[C@H](O)[C@H](O)CO.CNC[C@H](O)[C@@H](O)[C@H](O)[C@H](O)CO.O=C([O-])CN(CCN(CC(=O)[O-])CC(=O)O)CCN(CC(=O)O)C(COCc1ccccc1)C(=O)[O-].[Gd+3] (stereo not shown) [MultiHance, Gadobenate Dimeglumine]",11
3,"CNC(=O)CN(CCN(CCN(CC(=O)[O-])CC(=O)NC)CC(=O)[O-])CC(=O)[O-].[Gd+3] [Omniscan, Gadodiamide]",8
4,"CNC[C@H](O)[C@@H](O)[C@H](O)[C@H](O)CO.CNC[C@H](O)[C@@H](O)[C@H](O)[C@H](O)CO.O=C([O-])CN(CCN(CC(=O)[O-])CC(=O)O)CCN(CC(=O)[O-])CC(=O)O.[Gd+3] [Magnevist, Gadopentetate dimeglumine]",10
5,"COCCNC(=O)CN(CCN(CCN(CC(=O)[O-])CC(=O)NCCOC)CC(=O)[O-])CC(=O)[O-].[Gd+3] [OptiMARK, Gadoversetamide]",8
6,"CC(O)CN1CCN(CC(=O)[O-])CCN(CC(=O)[O-])CCN(CC(=O)[O-])CC1.[Gd+3] (stereo not shown) [ProHance, Gadoteridol]",7
7,"CCOc1ccc(CC(CN(CCN(CC(=O)[O-])CC(=O)[O-])CC(=O)[O-])N(CC(=O)[O-])CC(=O)[O-])cc1.[Gd+3].[Na+].[Na+] (stereo not shown) [Eovist, Gadoxetate Disodium]",9
8,"O=C([O-])CN(CCN(CC(=O)[O-])CC(COP(=O)([O-])OC1CCC(c2ccccc2)(c2ccccc2)CC1)N(CC(=O)[O-])CC(=O)[O-])CC(=O)[O-].[Gd+3].[Na+].[Na+].[Na+] (stereo not shown) [Ablavar, Gadofosveset trisodium]",10
9,Gadoterate meglumine [Dotarem],9
